Data set [1] is described as follows: Compatibility of raw material and auxiliary material (content measurement). The class given is physicochemical. The method, then:
The mixture was allowed to stand at 60° C. high temperature condition (60° C.), high humidity condition (25° C., 92.5% RH), acceleration condition (40° C.±2° C., 75% RH±5%), and light condition (4500 1×±500 1×) for 10 days and 30 days, and then taken out to detect the content and the change of the related substance.

A short description of data set [2]: Stability investigation of related substance (capsules). The format is physicochemical. Particulars: 0 day. An excerpt: The capsules provided by the present invention were taken and separately put under the conditions shown in Table 18 to investigate the stability.

In the case of `N#C[C@@]1(c2ccc3c(N)ncnn23)O[C@H](COC(=O)C2CCCCC2)[C@@H](O)[C@H]1O` [ATV014], the “Content measurement result, 25° C./92.5% RH, open, 10 day” value in data set [1] (25° C./92.5% RH, 10 day) turned out to be 100.3%. The “Content measurement result, 60° C., open, 10 day” value in data set [1] (60° C., 10 day) was 100.3%. For the same compound, in data set [1] (60° C., 30 day), the “Content measurement result, 60° C., open, 30 day” value is 100.5%. For the same compound, in data set [2], the “Impurity (%) RRT 0.42” value amounted to 0.47%, the “Impurity (%) RRT 0.49 (0.48)” value is on record as 0.19%, the “Impurity (%) RRT 1.16” value is 0.75% and the “Impurity (%) RRT 1.42 (1.38)” value turned out to be 0.53%. Also, in data set [2], the “Impurity (%) RRT 1.44 (1.40)” value came to 0.16%, the “Impurity (%) RRT 1.70 (1.65)” value came to 0.04% and the “Impurity (%) Total” value is 2.10%.
